Measured values: US11510859B2, “Method for improving aqueous solubility of water-insoluble or slightly water-soluble drugs” (MARINOMED BIOTECH AG, priority 2015, dated 2022)

Key:
[1] = tested on: porcine nasal mucosa; test: Ex vivo penetration of fluticasone propionate into porcine nasal mucosa; type: in vitro ADME; conditions: 5 μg/ml; 0.03% escin, 3% propylene glycol, 5% dexpanthenol vs suspension without saponin; 15-60 min
Procedure: In order to test for the bioavailability of compositions prepared in accordance with the present invention, experiments were conducted ex vivo wherein an experimental composition comprising fluticasone propionate as a compound of interest was compared to a composition comprising the same compound at the same concentration but without a saponin as a solubilization enhancer.
FIG. 14 represents the concentrations of fluticasone propionate penetrated ex-vivo into porcine nasal mucosa at different time points. The experimental composition comprised 5 μg/ml fluticasone propionate dissolved in aqueous buffer comprising 0.03% escin, 3% propylene glycol and 5% dexpanthenol. The comparative specimen was a suspension comprising the same aqueous buffer and no saponin nor dexpanthenol. Both formulations were added ex-vivo onto surgically extracted porcine nasal mucosa. After 15, 30, 45 and 60 minutes of incubation the mucosa was washed and the amount of permeated fluticasone propionate was determined by HPLC-MS/MS. • A—experimental composition; • B—comparative fluticasone propionate suspension; • x-axis=incubation time in minutes; • y-axis=ng fluticasone propionate/g tissue.

[2] = Fluticasone propionate solubility in the presence of hyaluronic acid (Examples 3, 14); type: physicochemical; conditions: 5% propylene glycol, 7.5 g/l hyaluronic acid; one month storage at ambient temperature
Procedure: Samples of series A (0% dexpanthenol): 2.5 ml solution containing the respective escin concentration (McIlvaine 0.01%, 0.02%, 0.03% or McIlvaine buffer) were mixed with 3.6 ml hyaluronic acid stock solution and 0.5 ml Fluticasone propionate pre-solution and filled up to 10 ml with distilled water. Samples of series B (2% dexpanthenol): 2.5 ml solution containing the respective escin concentration (McIlvaine 0.01%, 0.02%, 0.03% or McIlvaine buffer) were mixed with 0.2 ml dexpanthenol, 3.6 ml Hyaluronic acid stock solution and 0.5 ml fluticasone propionate pre-solution and filled up to 10 ml with distilled water. […]
After 1 month storage at room temperature, samples were taken and centrifuged for 11 min at 15700 rcf. The clear supernatant was filled into glass vials and the concentration of dissolved FP (maximal 5 μg/ml) was measured in duplicates by HPLC.
Fluticasone propionate in the presence of hyaluronic acid was analyzed by RP-HPLC (UV absorbance detection at 235 nm) using a gradient from 5% acetonitrile to 90% acetonitrile in water containing 0.01% TFA (see detailed gradient description below).
Solvent A: water HPLC gradient grade 0.01% trifluoroacetic acid. […] From the fluticasone propionate containing samples 40 μl each were injected and analyzed. […]

[3] = Saturation concentrations of drugs in buffered solvent, HPLC of supernatant (Example 4); type: physicochemical; conditions: McIlvaine buffer pH 6.0; compound pre-dissolved in propylene glycol
Procedure: 250 μl “McIlvaine 0.1%” were mixed with 50 μl dexpanthenol stock solution, brought to 900 μl with distilled water, and combined and vigorously mixed with 100 μl experimental compound pre-dissolved resp. pre-suspended in propylene glycol. Alternative solutions with compound pre-dilutions/pre-suspensions in DMSO were prepared. Samples were centrifuged for 10 min at 15800 rcf. Aliquots of the clear supernatants were transferred into autosampler glass vials and the content of the dissolved experimental compounds was analyzed by HPLC using isocratic elution with 70% or 80% acetonitrile 0.01% TFA/[…] or 30% water 0.01% TFA at 1 ml/min and 50° C. for 10 min on an Agilent Zorbax Eclipse Plus C18 column (3.5 μm, 4.6×150 mm) and UV absorbance detection at the wavelengths appropriate for the respective experimental compound.

[4] = Solubility of fluticasone propionate in 0.25x McIlvaine buffer (Examples 10, 11); type: physicochemical
Procedure: 0% Propylene glycol • B . . . 5% Propylene glycol • C . . . 10% Propylene glycol • * . . . w/v % Escin • # . . . v/v % Dexpanthenol • y-axis . . . concentration of dissolved fluticasone propionate
FIG. 7 represents the impact of dexpanthenol and saponin concentration on the dissolution of fluticasone propionate in 0.25× McIlvaine buffer containing 5% propylene glycol (maximum concentration achieved=5 μg/ml). […] The presence of 5% dexpanthenol seems to deliver solubility boosting effects. • A . . . 0% Dexpanthenol • B . . . 5% Dexpanthenol • y-axis . . . concentration of dissolved fluticasone propionate • x-axis . . . % Glycyrrhizin

[5] = U.S. Pat. No. 4,868,170; cited from earlier work

SMILES | concentration of drug permeated into mucosal tissue, experimental composition versus comparative suspension [1] | effect of dexpanthenol on fluticasone propionate solubility in the presence of escin [2] | Saturation concentration in 10% propylene glycol or DMSO without escin or dexpanthenol [3] [µg/mL] | Saturation concentration in 10% propylene glycol or DMSO, 0.1% escin and 5% dexpanthenol [3] [µg/mL] | best achieved concentration without saponin relative to maximum concentration with at least 0.03% escin ([4]; 0.25x McIlvaine buffer pH 6, propylene glycol 0-10%, dexpanthenol 0-5%) | maximum concentration achieved ([4]; 0.25x McIlvaine buffer, 5% propylene glycol, glycyrrhizin, dexpanthenol 0% or 5%) [µg/mL] | aqueous solubility [5]
CCC(=O)O[C@]1(C(=O)SCF)[C@H](C)C[C@H]2[C@@H]3C[C@H](F)C4=CC(=O)C=C[C@]4(C)[C@@]3(F)[C@@H](O)C[C@@]21C [Fluticasone propionate] | around five times higher | synergistically boost the solubility enhancing activity of escin | 0.68 | 5 | about 50% | 5 | –
CCS[C@]1(SC)CC[C@H]2[C@@H]3CCC4=CC(=O)C=C[C@]4(C)[C@@]3(F)[C@@H](O)C[C@@]21C [tipredane] | – | – | – | – | – | – | less than 0.2 mg/l
